Results published in ChEMBL document CHEMBL1955806, “Design, synthesis, single-crystal and preliminary antitumor activity of novel arenesulfonylimidazolidin-2-ones” (2012).

What was measured:
Format in all cases: functional
MOLT-4 = assay: Growth inhibition of human MOLT4 cells at 10 uM after 48 hrs by sulforhodamine B assay; conditions: MOLT-4, 48 h, read-out: GI
UO-31 = assay: Growth inhibition of human UO31 cells at 10 uM after 48 hrs by sulforhodamine B assay; conditions: UO-31, 48 h, read-out: GI
IGROV-1 = assay: Growth inhibition of human IGROV1 cells at 10 uM after 48 hrs by sulforhodamine B assay; conditions: IGROV-1, 48 h, read-out: GI
UACC-62 = assay: Growth inhibition of human UACC62 cells at 10 uM after 48 hrs by sulforhodamine B assay; conditions: UACC-62, 48 h, read-out: GI
PC-3 = assay: Growth inhibition of human PC3 cells at 10 uM after 48 hrs by sulforhodamine B assay; conditions: PC-3, 48 h, read-out: GI
HCT-116 = assay: Growth inhibition of human HCT116 cells at 10 uM after 48 hrs by sulforhodamine B assay; conditions: HCT-116, 48 h, read-out: GI
HOP-92 = assay: Growth inhibition of human HOP92 cells at 10 uM after 48 hrs by sulforhodamine B assay; conditions: HOP-92, 48 h, read-out: GI
SF-295 = assay: Growth inhibition of human SF295 cells at 10 uM after 48 hrs by sulforhodamine B assay; conditions: SF-295, 48 h, read-out: GI
CAKI-1 = assay: Growth inhibition of human CAKI-1 cells at 10 uM after 48 hrs by sulforhodamine B assay; conditions: CAKI-1, 48 h, read-out: GI

## CO[C@@H]1[C@@H](OC)N(S(=O)(=O)c2ccccc2)C(=O)N1S(=O)(=O)c1ccccc1 (relative stereo)
MOLT-4
  inhibition of growth at 10 µM: 13.3%
UO-31
  inhibition of growth at 10 µM: 15%
IGROV-1
  inhibition of growth at 10 µM: 3.06%
UACC-62
  inhibition of growth at 10 µM: -6.88%
PC-3
  inhibition of growth at 10 µM: 5.78%
HCT-116
  inhibition of growth at 10 µM: -2.02%
HOP-92
  inhibition of growth at 10 µM: 29.9%
SF-295
  inhibition of growth at 10 µM: -12.3%
CAKI-1
  inhibition of growth at 10 µM: 10.4%

## CO[C@H]1NC(=O)N(S(=O)(=O)c2c(C)cc(C)cc2C)[C@@H]1OC (relative stereo)
UO-31
  inhibition of growth at 10 µM: 14.7%
IGROV-1
  inhibition of growth at 10 µM: -7.61%
UACC-62
  inhibition of growth at 10 µM: 6.82%
PC-3
  inhibition of growth at 10 µM: 4.26%
HOP-92
  inhibition of growth at 10 µM: 21.3%
CAKI-1
  inhibition of growth at 10 µM: 15.7%

## COc1ccc(S(=O)(=O)N2C(=O)N[C@H](OC)[C@H]2OC)cc1 (relative stereo)
MOLT-4
  inhibition of growth at 10 µM: -5.62%
IGROV-1
  inhibition of growth at 10 µM: -20.7%
PC-3
  inhibition of growth at 10 µM: -2.45%
HCT-116
  inhibition of growth at 10 µM: -23.4%
SF-295
  inhibition of growth at 10 µM: 8.51%
CAKI-1
  inhibition of growth at 10 µM: 7.51%

## CO[C@H]1NC(=O)N(S(=O)(=O)c2ccc(Cl)cc2)[C@@H]1OC (relative stereo)
UO-31
  inhibition of growth at 10 µM: 22%
IGROV-1
  inhibition of growth at 10 µM: -23.9%
PC-3
  inhibition of growth at 10 µM: 2.67%
HCT-116
  inhibition of growth at 10 µM: -10.3%
HOP-92
  inhibition of growth at 10 µM: -13.6%
SF-295
  inhibition of growth at 10 µM: 7.91%
CAKI-1
  inhibition of growth at 10 µM: 7.49%

## COc1ccc(S(=O)(=O)N2C(=O)N(S(=O)(=O)c3ccc(OC)cc3OC)[C@H](OC)[C@H]2OC)c(OC)c1 (relative stereo)
MOLT-4
  inhibition of growth at 10 µM: 14.2%
UO-31
  inhibition of growth at 10 µM: 23.3%
IGROV-1
  inhibition of growth at 10 µM: 3.77%
UACC-62
  inhibition of growth at 10 µM: 16%
PC-3
  inhibition of growth at 10 µM: 15.9%
HCT-116
  inhibition of growth at 10 µM: -2.15%
SF-295
  inhibition of growth at 10 µM: 4.19%
CAKI-1
  inhibition of growth at 10 µM: 17.1%

## COc1ccc(S(=O)(=O)N2C(=O)N(S(=O)(=O)c3ccc(OC)cc3)[C@H](OC)[C@H]2OC)cc1 (relative stereo)
MOLT-4
  inhibition of growth at 10 µM: 15.6%
UO-31
  inhibition of growth at 10 µM: 35.1%
IGROV-1
  inhibition of growth at 10 µM: 6.17%
UACC-62
  inhibition of growth at 10 µM: 20.3%
PC-3
  inhibition of growth at 10 µM: 22.2%
HCT-116
  inhibition of growth at 10 µM: 8.94%
HOP-92
  inhibition of growth at 10 µM: 61%
SF-295
  inhibition of growth at 10 µM: 6.43%
CAKI-1
  inhibition of growth at 10 µM: 36.8%

## CO[C@@H]1[C@@H](OC)N(S(=O)(=O)c2ccc(Cl)cc2Cl)C(=O)N1S(=O)(=O)c1ccc(Cl)cc1Cl (relative stereo)
MOLT-4
  inhibition of growth at 10 µM: 14.2%
UO-31
  inhibition of growth at 10 µM: 15.3%
IGROV-1
  inhibition of growth at 10 µM: 4.16%
UACC-62
  inhibition of growth at 10 µM: 4.25%
PC-3
  inhibition of growth at 10 µM: 22.5%
HCT-116
  inhibition of growth at 10 µM: 11.9%
HOP-92
  inhibition of growth at 10 µM: 60.2%
SF-295
  inhibition of growth at 10 µM: 16%
CAKI-1
  inhibition of growth at 10 µM: 25%

## CO[C@H]1NC(=O)N(S(=O)(=O)c2ccc3ccccc3c2)[C@@H]1OC (relative stereo)
UO-31
  inhibition of growth at 10 µM: 13.7%
IGROV-1
  inhibition of growth at 10 µM: -25.5%
UACC-62
  inhibition of growth at 10 µM: 1.65%
PC-3
  inhibition of growth at 10 µM: 2.1%
HCT-116
  inhibition of growth at 10 µM: -4.18%
SF-295
  inhibition of growth at 10 µM: 4.43%
CAKI-1
  inhibition of growth at 10 µM: -7.3%

## COc1ccc(S(=O)(=O)N2C(=O)N[C@H](OC)[C@H]2OC)c(OC)c1 (relative stereo)
UO-31
  inhibition of growth at 10 µM: 6.25%
IGROV-1
  inhibition of growth at 10 µM: -13.9%
UACC-62
  inhibition of growth at 10 µM: 8.26%
PC-3
  inhibition of growth at 10 µM: 4.15%
SF-295
  inhibition of growth at 10 µM: 2.06%
CAKI-1
  inhibition of growth at 10 µM: 21.2%
